From paper PMC8803738, “Impact of the mouse model and molar amount of injected ligand on the tissue distribution profile of PSMA radioligands” (European Journal of Nuclear Medicine and Molecular Imaging, 2021)

Test system: LNCaP tumor-bearing mice
Assay: Biodistribution in LNCaP tumor-bearing mice
Settings: for AUCTu(0→48 h)-to-AUCKi(0→48 h) ratio: LNCaP model (male mice); for AUCTu(0→48 h)-to-AUCKi(0→48 h) ratio / AUC0→48h, Kidneys / AUC0→48h, LNCaP tumor: average ± SE, non-decay-corrected
[1] = LNCaP model, 4 h p.i., 0.05 nmol
[2] = LNCaP model, 4 h p.i., 1.0 nmol
[3] = LNCaP model, 24 h p.i., 0.05 nmol
[4] = LNCaP model, 24 h p.i., 1.0 nmol
[5] = LNCaP model, 48 h p.i., 0.05 nmol

CC(C)Cc1ccc(C(C)C(=O)NC(CCN)C(=O)NCCCCC(NC(=O)CN2CCN(CC(=O)O)CCN(CC(=O)O)CCN(CC(=O)O)CC2)C(=O)NCC2CCC(C(=O)NC(Cc3ccc4ccccc4c3)C(=O)NCCCCC(NC(=O)NC(CCC(=O)O)C(=O)O)C(=O)O)CC2)cc1 (centres unmarked) [[^177Lu]Lu-Ibu-DAB-PSMA, metal not drawn]
AUCTu(0→48 h)-to-AUCKi(0→48 h) ratio (0.05 nmol): 0.89 ± 0.25 | AUCTu(0→48 h)-to-AUCKi(0→48 h) ratio (1.0 nmol): 1.2 ± 0.2 | AUC0→48h, Kidneys (LNCaP model, 0.05 nmol): 815 ± 103 % IA/g*h | AUC0→48h, LNCaP tumor (LNCaP model, 0.05 nmol): 721 ± 115 % IA/g*h | Increase of tumor-to-kidney AUC0→48 h ratio for high vs low molar amount of injected ligand (LNCaP model, 1.0 nmol vs 0.05 nmol): 1.3 fold | AUC0→48h, Kidneys (LNCaP model, 1.0 nmol): 349 ± 21 % IA/g*h | AUC0→48h, LNCaP tumor (LNCaP model, 1.0 nmol): 402 ± 38 % IA/g*h | Tissue distribution, Blood [1]: 1.6 ± 0.3 % IA/g | Tissue distribution, Bone [1]: 0.63 ± 0.33 % IA/g | Tissue distribution, Heart [1]: 0.61 ± 0.13 % IA/g | Tissue distribution, Intestines [1]: 0.33 ± 0.03 % IA/g | Tissue distribution, Kidneys [1]: 58 ± 10 % IA/g | Tissue distribution, LNCaP tumor [1]: 18 ± 3 % IA/g | Tissue distribution, Liver [1]: 1.3 ± 0.1 % IA/g | Tissue distribution, Lung [1]: 1.4 ± 0.2 % IA/g | Tissue distribution, Muscle [1]: 1.5 ± 1.9 % IA/g | Tissue distribution, Salivary glands [1]: 0.59 ± 0.14 % IA/g | Tissue distribution, Spleen [1]: 1.5 ± 0.4 % IA/g | Tissue distribution, Stomach [1]: 0.32 ± 0.06 % IA/g | Tumor-to-blood ratio [1]: 12 ± 1 | Tumor-to-kidney ratio [1]: 0.32 ± 0.03 | Tumor-to-liver ratio [1]: 14 ± 1 | Tissue distribution, Blood [2]: 0.87 ± 0.29 % IA/g | Tissue distribution, Bone [2]: 0.39 ± 0.17 % IA/g | Tissue distribution, Heart [2]: 0.41 ± 0.11 % IA/g | Tissue distribution, Intestines [2]: 0.23 ± 0.05 % IA/g | Tissue distribution, Kidneys [2]: 16 ± 1 % IA/g | Tissue distribution, LNCaP tumor [2]: 12 ± 2 % IA/g | Tissue distribution, Liver [2]: 0.82 ± 0.09 % IA/g | Tissue distribution, Lung [2]: 0.78 ± 0.19 % IA/g | Tissue distribution, Muscle [2]: 0.22 ± 0.14 % IA/g | Tissue distribution, Salivary glands [2]: 0.38 ± 0.08 % IA/g | Tissue distribution, Spleen [2]: 0.45 ± 0.08 % IA/g | Tissue distribution, Stomach [2]: 0.22 ± 0.06 % IA/g | Tumor-to-blood ratio [2]: 15 ± 5 | Tumor-to-kidney ratio [2]: 0.71 ± 0.10 | Tumor-to-liver ratio [2]: 14 ± 1 | Tissue distribution, Blood [3]: 0.16 ± 0.03 % IA/g | Tissue distribution, Bone [3]: < 0.10 % IA/g | Tissue distribution, Heart [3]: 0.11 ± 0.02 % IA/g | Tissue distribution, Intestines [3]: 0.10 ± 0.01 % IA/g | Tissue distribution, Kidneys [3]: 5.9 ± 1.5 % IA/g | Tissue distribution, LNCaP tumor [3]: 18 ± 7 % IA/g | Tissue distribution, Liver [3]: 0.48 ± 0.08 % IA/g | Tissue distribution, Lung [3]: 0.24 ± 0.03 % IA/g | Tissue distribution, Muscle [3]: < 0.10 % IA/g | Tissue distribution, Salivary glands [3]: 0.18 ± 0.03 % IA/g | Tissue distribution, Spleen [3]: 0.35 ± 0.06 % IA/g | Tissue distribution, Stomach [3]: 0.13 ± 0.04 % IA/g | Tumor-to-blood ratio [3]: 116 ± 37 | Tumor-to-kidney ratio [3]: 3.2 ± 1.1 | Tumor-to-liver ratio [3]: 39 ± 13 | Tissue distribution, Blood [4]: 0.19 ± 0.03 % IA/g | Tissue distribution, Bone [4]: 0.14 ± 0.03 % IA/g | Tissue distribution, Heart [4]: 0.12 ± 0.02 % IA/g | Tissue distribution, Intestines [4]: 0.12 ± 0.03 % IA/g | Tissue distribution, Kidneys [4]: 6.8 ± 1.1 % IA/g | Tissue distribution, LNCaP tumor [4]: 8.8 ± 2.2 % IA/g | Tissue distribution, Liver [4]: 0.45 ± 0.07 % IA/g | Tissue distribution, Lung [4]: 0.23 ± 0.03 % IA/g | Tissue distribution, Muscle [4]: < 0.10 % IA/g | Tissue distribution, Salivary glands [4]: 0.16 ± 0.02 % IA/g | Tissue distribution, Spleen [4]: 0.21 ± 0.06 % IA/g | Tissue distribution, Stomach [4]: 0.23 ± 0.10 % IA/g | Tumor-to-blood ratio [4]: 46 ± 12 | Tumor-to-kidney ratio [4]: 1.3 ± 0.2 | Tumor-to-liver ratio [4]: 20 ± 3 | Tissue distribution, Blood [5]: 0.10 ± 0.02 % IA/g | Tissue distribution, Bone [5]: < 0.10 % IA/g | Tissue distribution, Heart [5]: < 0.10 % IA/g | Tissue distribution, Intestines [5]: < 0.10 % IA/g | Tissue distribution, Kidneys [5]: 2.0 ± 0.3 % IA/g | Tissue distribution, LNCaP tumor [5]: 16 ± 5 % IA/g | Tissue distribution, Liver [5]: 0.50 ± 0.10 % IA/g | Tissue distribution, Lung [5]: 0.16 ± 0.04 % IA/g | Tissue distribution, Muscle [5]: < 0.10 % IA/g | Tissue distribution, Salivary glands [5]: 0.11 ± 0.01 % IA/g
